Experimental data: EP3771713A1 (priority 2019, dated 2021)
“Also recorded” adds a separate entry of the source. Where two headings read alike, the source gives them in different places.

How the values were obtained:
hBChE = hBChE (Homo sapiens, UniProt P06276); experiment: biochemical; format: biochemical
eeAChE = eeAChE (Electrophorus electricus, UniProt O42275); experiment: biochemical
hCB1R = target: T1, hCB1R (Homo sapiens, UniProt P21554); format: binding
T1 construct: expressed in transfected cells; host or cells: CHO cells stably expressing hCB1R
T1 sequence (P21554 whole entry): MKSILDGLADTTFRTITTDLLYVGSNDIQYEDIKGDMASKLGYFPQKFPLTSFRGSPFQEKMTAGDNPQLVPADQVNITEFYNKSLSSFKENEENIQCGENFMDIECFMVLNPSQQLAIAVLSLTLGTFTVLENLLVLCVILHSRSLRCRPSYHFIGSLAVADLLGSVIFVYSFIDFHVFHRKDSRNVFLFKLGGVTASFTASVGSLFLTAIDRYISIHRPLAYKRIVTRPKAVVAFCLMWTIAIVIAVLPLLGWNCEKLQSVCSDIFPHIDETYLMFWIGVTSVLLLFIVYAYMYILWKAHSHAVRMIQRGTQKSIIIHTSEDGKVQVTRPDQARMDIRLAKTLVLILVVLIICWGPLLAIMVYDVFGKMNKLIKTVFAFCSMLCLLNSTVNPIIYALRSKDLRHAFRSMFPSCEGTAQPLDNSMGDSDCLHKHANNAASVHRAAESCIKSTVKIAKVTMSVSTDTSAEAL

hCB2R [1] = target: T2, hCB2R (Homo sapiens, UniProt P34972); experiment: biochemical; format: binding
T2 construct: expressed in transfected cells; host or cells: HEK cells stably expressing hCB2R
T2 sequence (P34972 whole entry): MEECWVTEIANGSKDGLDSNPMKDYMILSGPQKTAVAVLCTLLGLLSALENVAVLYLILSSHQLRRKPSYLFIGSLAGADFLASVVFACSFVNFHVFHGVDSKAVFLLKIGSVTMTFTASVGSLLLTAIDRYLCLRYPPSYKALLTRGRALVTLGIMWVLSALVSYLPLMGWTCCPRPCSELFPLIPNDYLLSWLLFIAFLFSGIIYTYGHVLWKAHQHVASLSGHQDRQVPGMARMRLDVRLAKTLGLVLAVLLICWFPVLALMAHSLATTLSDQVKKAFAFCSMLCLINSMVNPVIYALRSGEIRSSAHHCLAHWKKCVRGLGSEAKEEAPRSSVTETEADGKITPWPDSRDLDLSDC

HT-22 cells = format: cell-based, murine
hAChE = hAChE (Homo sapiens, UniProt P22303); experiment: biochemical; format: biochemical
Sequence of hAChE (P22303 32-614): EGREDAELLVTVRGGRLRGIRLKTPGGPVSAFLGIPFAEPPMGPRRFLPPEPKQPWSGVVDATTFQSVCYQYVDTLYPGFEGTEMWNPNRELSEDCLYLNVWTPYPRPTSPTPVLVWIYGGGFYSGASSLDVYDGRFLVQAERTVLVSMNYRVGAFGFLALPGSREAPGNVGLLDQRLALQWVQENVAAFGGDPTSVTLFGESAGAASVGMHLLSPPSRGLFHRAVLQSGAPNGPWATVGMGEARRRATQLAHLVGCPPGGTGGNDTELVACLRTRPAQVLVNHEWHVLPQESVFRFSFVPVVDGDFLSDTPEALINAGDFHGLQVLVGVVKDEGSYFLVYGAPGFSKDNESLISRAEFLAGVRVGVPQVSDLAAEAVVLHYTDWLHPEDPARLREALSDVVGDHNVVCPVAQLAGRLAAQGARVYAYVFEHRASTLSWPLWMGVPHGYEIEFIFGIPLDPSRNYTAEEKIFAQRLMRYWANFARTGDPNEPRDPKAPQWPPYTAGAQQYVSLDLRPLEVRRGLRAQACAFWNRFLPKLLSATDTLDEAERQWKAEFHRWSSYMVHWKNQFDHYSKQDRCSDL

[2] = test system: Aβ25-35-induced learning impairments in mice; settings: mouse, ip; for dose that significantly prevented Aβ25-35-induced learning impairments / most effective dose (completely prevented Aβ25-35 impairments in both tests): in vivo
[3] = test system: murine microglial cell line N9; experiment: Microglia activation: LPS-activated N9 cells, M1/M2 markers (Griess reaction, western blot); format: cell-based; settings: N9 cells, 100 ng/mL LPS, 1-5 µM compound, 24 h
[4] = target: hAChE-induced Aβ40 aggregation (Homo sapiens, UniProt P22303); experiment: biochemical; format: biochemical; settings: for inhibition at 100 µM: [I] = 100 µM, Aβ40/hAChE ratio 100/1, mean ± SEM, read-out: % inhibition Aβ aggregation AChE-induced
Sequence of hAChE-induced Aβ40 aggregation (P22303 32-614): as above

Aβ42 = Aβ42 (Homo sapiens, UniProt P05067); experiment: Aβ42 self-aggregation, thioflavin-T fluorescence assay; format: biochemical; settings: for inhibition at 50 µM: read-out: % inhibition Aβ aggregation self-induced; for inhibition of Aβ42 self-aggregation (in words): 1/1 ratio with Aβ42
Sequence of Aβ42 (P05067 672-713): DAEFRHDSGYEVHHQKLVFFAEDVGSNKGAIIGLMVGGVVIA

hCB2R [5] = target: T2, hCB2R; format: cell-based
[6] = eeAChE from electric eel, read-out: IC50 AChE (eeAChE)
[7] = 50 µM inhibitor and 50 µM Aβ42, mean ± SEM
[8] = hBChE from human serum, means of at least three determinations, read-out: IC50 hBChE
[9] = hAChE recombinant expressed, read-out: IC50 AChE (hAChE)

Sequence of eeAChE (O42275 24-633): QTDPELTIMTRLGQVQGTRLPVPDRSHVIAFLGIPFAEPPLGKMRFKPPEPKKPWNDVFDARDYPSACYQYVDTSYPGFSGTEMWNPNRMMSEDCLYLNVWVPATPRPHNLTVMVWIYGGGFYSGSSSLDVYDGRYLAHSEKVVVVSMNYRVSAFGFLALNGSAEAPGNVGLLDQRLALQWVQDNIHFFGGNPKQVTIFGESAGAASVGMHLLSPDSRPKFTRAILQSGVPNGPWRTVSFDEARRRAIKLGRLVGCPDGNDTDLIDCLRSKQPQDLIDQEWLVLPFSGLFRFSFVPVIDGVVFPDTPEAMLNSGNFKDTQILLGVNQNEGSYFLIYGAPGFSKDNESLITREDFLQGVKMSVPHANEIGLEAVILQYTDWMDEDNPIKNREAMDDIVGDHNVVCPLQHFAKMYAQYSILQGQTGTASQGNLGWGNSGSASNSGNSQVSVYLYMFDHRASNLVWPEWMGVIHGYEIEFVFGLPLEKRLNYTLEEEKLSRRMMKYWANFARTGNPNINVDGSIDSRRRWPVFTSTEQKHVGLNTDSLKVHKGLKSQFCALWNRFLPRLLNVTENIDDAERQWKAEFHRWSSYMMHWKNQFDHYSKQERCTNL
Sequence of hBChE (P06276 29-602): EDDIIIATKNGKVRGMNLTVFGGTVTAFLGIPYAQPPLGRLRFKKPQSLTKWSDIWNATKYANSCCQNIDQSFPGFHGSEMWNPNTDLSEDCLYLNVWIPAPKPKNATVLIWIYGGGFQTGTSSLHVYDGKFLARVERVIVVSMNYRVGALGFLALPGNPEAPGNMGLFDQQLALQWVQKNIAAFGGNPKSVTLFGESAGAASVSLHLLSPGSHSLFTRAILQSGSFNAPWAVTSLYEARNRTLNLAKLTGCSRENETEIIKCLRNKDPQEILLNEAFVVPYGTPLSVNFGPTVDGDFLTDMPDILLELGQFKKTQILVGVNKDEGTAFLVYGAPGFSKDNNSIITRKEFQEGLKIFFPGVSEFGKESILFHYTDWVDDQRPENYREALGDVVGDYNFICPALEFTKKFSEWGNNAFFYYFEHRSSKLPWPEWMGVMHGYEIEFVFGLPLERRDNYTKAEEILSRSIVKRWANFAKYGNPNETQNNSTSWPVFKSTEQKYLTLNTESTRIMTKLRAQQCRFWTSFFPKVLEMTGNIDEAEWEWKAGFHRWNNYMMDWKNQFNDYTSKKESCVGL

## CCOc1ccc(Cc2nc3cc(C(=O)N(CC)CC)ccc3n2CCCNc2c3c(nc4ccccc24)CCCC3)cc1 [3b, 2-(4-Ethoxybenzyl)-N,N-diethyl-1-(3-((1,2,3,4-tetrahydroacridin-9-yl)amino)propyl)-1H-benzo[d]imidazole-5-carboxamide]
hBChE
  inhibitory potency towards hBChE compared to tacrine: increased inhibitory potency
eeAChE; [6]
  IC50: 130 nM
hCB1R
  [^3H]CP 55,940 displ. @10 µM hCB1R: 15%

## CCOc1ccc(Cc2nc3cc(C(=O)N(CC)CC)ccc3n2CCCCNc2c3c(nc4ccccc24)CCCC3)cc1 [3c, 2-(4-ethoxybenzyl)-N,N-diethyl-1-(4-((1,2,3,4-tetrahydroacridin-9-yl)amino)butyl)-1H-benzo[d]imidazole-5-carboxamide]
eeAChE; [6]
  IC50: 157 nM
hCB1R
  [^3H]CP 55,940 displ. @10 µM hCB1R: 32%
hCB2R [1]
  Ki: 25100 nM
hCB2R [1]; read-out: Ki hCB2R
  Ki: 26900 nM

## CCOc1ccc(Cc2nc3cc(C(=O)N(CC)CC)ccc3n2CCCCCNc2c3c(nc4ccccc24)CCCC3)cc1 [3d, 2-(4-Ethoxybenzyl)-N,N-diethyl-1-(5-((1,2,3,4-tetrahydroacridin-9-yl)amino)pentyl)-1H-benzo[d]imidazole-5-carboxamide]
HT-22 cells
  neuroprotective behavior (in words): none
eeAChE
  IC50: 199 nM
hAChE
  pIC50 ± SD AChE (hAChE): 199 nM^b 641 nM^c (6.2 ± 0.1)
hAChE; IC50 AChE (hAChE)
  IC50: 641 nM
[2]
  dose that significantly prevented Aβ25-35-induced learning impairments: 0.3 mg/kg
hCB1R
  [^3H]CP 55,940 displ. @10 µM hCB1R: 21%
hCB2R [1]
  Ki: 7940 nM
hCB2R [1]; read-out: Ki hCB2R
  Ki: 7300 nM

## CCOc1ccc(Cc2nc3cc(C(=O)NCCNc4c5c(nc6ccccc46)CCCC5)ccc3n2CCC(C)C)cc1 [4a, 2-(4-Ethoxybenzyl)-1-isopentyl-N-(2-((1,2,3,4-tetrahydroacridin-9-yl)amino)ethyl)-1H-benzo[d]imidazole-5-carboxamide]
eeAChE; [6]
  IC50: 2.1 nM
[2]
  dose that significantly prevented Aβ25-35-induced learning impairments: 0.3 mg/kg
  most effective dose (completely prevented Aβ25-35 impairments in both tests): 1 mg/kg
hCB2R [1]
  pIC50 ± SD hCB2R (in brackets after Ki): 2.5 µM (5.6 ± 0.2)
hCB2R [1]; read-out: Ki hCB2R
  Ki: 2500 nM
[3]
  NO release / nitrite accumulation: reduced
[3]; M1 marker
  IL1β release: significantly decrease
  iNOS expression: significantly decrease
[3]; M2 marker
  TGFβ2 expression: not reduced
  TREM2 expression: not reduced

## CCOc1ccc(Cc2nc3cc(C(=O)NCCCNc4c5c(nc6ccccc46)CCCC5)ccc3n2CCC(C)C)cc1 [4b, 2-(4-Ethoxybenzyl)-1-isopentyl-N-(3-((1,2,3,4-tetrahydroacridin-9-yl)amino)propyl)-1H-benzo[d]imidazole-5-carboxamide]
[4]
  inhibition of AChE-induced Aβ40 aggregation (in words): significantly reduce
  inhibition at 100 µM: 47.8 ± 9.6%
Aβ42; [7]
  inhibition at 50 µM: 16.4 ± 4.2%
Aβ42
  inhibition of Aβ42 self-aggregation (in words): quite weak
hBChE
  inhibitory potency towards hBChE compared to tacrine: increased inhibitory potency
eeAChE; [6]
  IC50: 3.2 nM
hAChE; compared to tacrine
  inhibitory activity towards hAChE compared to tacrine: higher inhibitory activity
hCB1R
  [^3H]CP 55,940 displ. @10 µM hCB1R: 20%
hCB2R [1]
  pIC50 ± SD hCB2R (in brackets after Ki): 5.0 µM (5.3 ± 0.1)
hCB2R [1]; read-out: Ki hCB2R
  Ki: 5000 nM

## CCOc1ccc(Cc2nc3cc(C(=O)NCCCCNc4c5c(nc6ccccc46)CCCC5)ccc3n2CCC(C)C)cc1 [4c, 2-(4-Ethoxybenzyl)-1-isopentyl-N-(4-((1,2,3,4-tetrahydroacridin-9-yl)amino)butyl)-1H-benzo[d]imidazole-5-carboxamide]
eeAChE; [6]
  IC50: 12.8 nM
hCB1R
  [^3H]CP 55,940 displ. @10 µM hCB1R: 9%
hCB2R [5]
  MIF gene expression: reduced
  STAT-3 gene expression: reduced
  behavior at the hCB2R: maintained their agonist behavior
hCB2R [1]
  Ki: 2510 nM
hCB2R [1]; read-out: Ki hCB2R
  Ki: 2400 nM

## CCOc1ccc(Cc2nc3cc(C(=O)NCCCCCNc4c5c(nc6ccccc46)CCCC5)ccc3n2CCC(C)C)cc1 [4d, 2-(4-Ethoxybenzyl)-1-isopentyl-N-(5-((1,2,3,4-tetrahydroacridin-9-yl)amino)pentyl)-1H-benzo[d]imidazole-5-carboxamide]
eeAChE; [6]
  IC50: 52.7 nM
hCB1R
  [^3H]CP 55,940 displ. @10 µM hCB1R: 15%
hCB2R [1]
  pIC50 ± SD hCB2R (in brackets after Ki): 4.0 µM (5.4 ± 0.1)
hCB2R [1]; read-out: Ki hCB2R
  Ki: 4000 nM

## CCOc1ccc(Cc2nc3cc(C(=O)NCCCCCCNc4c5c(nc6ccccc46)CCCC5)ccc3n2CCC(C)C)cc1 [4e, 2-(4-Ethoxybenzyl)-1-isopentyl-N-(6-((1,2,3,4-tetrahydroacridin-9-yl)amino)hexyl)-1H-benzo[d]imidazole-5-carboxamide]
eeAChE; [6]
  IC50: 8.5 nM
hCB1R
  [^3H]CP 55,940 displ. @10 µM hCB1R: 54%
hCB2R [1]
  Ki: 10000 nM
hCB2R [1]; read-out: Ki hCB2R
  Ki: 9600 nM

## Cc1c(C(=O)NN2CCCCC2)nn(-c2ccc(Cl)cc2Cl)c1-c1ccc(Cl)cc1 [Rimonabant, reference compound]
hCB2R [1]
  [^3H]CP 55,940 displ. @10 µM hCB2R: 4%

## Nc1c2c(nc3ccccc13)CCCC2 [Tacrine 1, tacrine, reference compound]
Aβ42
  inhibition of Aβ42 self-aggregation (in words): no effect
  inhibition at 50 µM: < 5%

## CCOc1ccc(Cc2nc3cc(C(=O)N(CC)CCCCNc4c5c(nc6ccccc46)CCCC5)ccc3n2CCC(C)C)cc1 [compound 5, 2-(4-ethoxybenzyl)-N-ethyl-1-isopentyl-N-(4-((1,2,3,4-tetrahydroacridin-9-yl)amino)butyl)-1H-benzo[d]imidazole-5-carboxamide]
hBChE
  SI: 6.2
hBChE; hBChE from human serum
  pIC50 ± SD hBChE: 7.2 ± 0.1
hBChE; [8]
  IC50: 60 nM
eeAChE; [6]
  IC50: 370 nM
hAChE; hAChE recombinant expressed
  pIC50 ± SD AChE (hAChE): 6.6 ± 0.1
hAChE; [9]
  IC50: 259 nM
hCB1R
  [^3H]CP 55,940 displ. @10 µM hCB1R: 36%
  affinity towards hCB1R (in words): higher affinity
hCB2R [1]
  Ki: 3160 nM
  affinity towards hCB2R (in words): same affinity
  selectivity hCB2R over hCB1R (in words): low selectivity
hCB2R [1]; read-out: Ki hCB2R
  Ki: 3000 nM

## CCOc1ccc(Cc2nc3cc(C(=O)N(CC)CC)ccc3n2CCOCCOCCNc2c3c(nc4ccccc24)CCCC3)cc1 [compound 6, 2-(4-Ethoxybenzyl)-N,N-diethyl-1-(2-(2-(2-((1,2,3,4-tetrahydroacridin-9-yl)amino)ethoxy)ethoxy)ethyl)-1H-benzo[d]imidazole-5-carboxamide]
hBChE
  IC50: 90 nM
  pIC50 ± SD hBChE: 90 nM (7.0 ± 0.1)
eeAChE
  IC50: 150 nM
hCB1R
  [^3H]CP 55,940 displ. @10 µM hCB1R: 11%
hCB2R [1]
  Ki: 31600 nM
  affinity towards hCB2R (in words): weaker affinity
hCB2R [1]; read-out: Ki hCB2R
  Ki: 28700 nM

## CCOc1ccc(Cc2nc3cc(C(=O)NCCOCCOCCNc4c5c(nc6ccccc46)CCCC5)ccc3n2CCC(C)C)cc1 [compound 7, 2-(4-Ethoxybenzyl)-1-isopentyl-N-(2-(2-(2-((1,2,3,4-tetrahydroacridin-9-yl)amino)ethoxy)ethoxy)ethyl)-1H-benzo[d]imidazole-5-carboxamide]
eeAChE
  IC50: 1030 nM
hAChE; IC50 AChE (hAChE)
  IC50: 1360 nM
hAChE; pIC50 ± SD AChE (hAChE)
  IC50: 1400 nM
hCB1R
  [^3H]CP 55,940 displ. @10 µM hCB1R: 32%
hCB2R [1]
  Ki: 15800 nM
  affinity towards hCB2R (in words): weaker affinity
hCB2R [1]; read-out: Ki hCB2R
  Ki: 17400 nM

## CCOc1ccc(Cc2nc3cc(C(=O)NCCSSCCNc4c5c(nc6ccccc46)CCCC5)ccc3n2CCC(C)C)cc1 [compound 8, 2-(4-Ethoxybenzyl)-1-isopentyl-N-(2-((2-((1,2,3,4-tetrahydroacridin-9-yl)amino)ethyl)disulfaneyl)ethyl)-1H-benzo[d]imidazole-5-carboxamide]
[4]
  inhibition of AChE-induced Aβ40 aggregation (in words): not able to significantly inhibit
  inhibition at 100 µM: 5 ± 2.6%
Aβ42; [7]
  inhibition at 50 µM: 83.4 ± 6.4%
Aβ42
  inhibition of Aβ42 self-aggregation (in words): strongly inhibited
hBChE; hBChE from human serum
  pIC50 ± SD hBChE: 7.1 ± 0.1
hBChE; [8]
  IC50: 77 nM
HT-22 cells
  neuroprotective behavior (in words): neuroprotection comparable to the positive control quercetin; also recorded: showed neuroprotection
eeAChE; [6]
  IC50: 44 nM
hAChE; hAChE recombinant expressed
  pIC50 ± SD AChE (hAChE): 7.9 ± 0.1
hAChE; [9]
  IC50: 13.4 nM
[2]
  dose that significantly prevented Aβ25-35-induced learning impairments: 0.3 mg/kg
  most effective dose (completely prevented Aβ25-35 impairments in both tests): 0.3 mg/kg
  dose given for the high in vivo efficacy (conclusion): 0.1 mg/kg
hCB1R
  [^3H]CP 55,940 displ. @10 µM hCB1R: 45%
hCB2R [1]
  Ki: 6310 nM
  affinity towards hCB2R (in words): no significant effect on affinity
hCB2R [1]; read-out: Ki hCB2R
  Ki: 6800 nM
